# Biological target: T1, human TLR9 (Homo sapiens, UniProt Q9NR96)
# T1 construct: expressed in transfected cells
# T1 sequence (Q9NR96 26-1032): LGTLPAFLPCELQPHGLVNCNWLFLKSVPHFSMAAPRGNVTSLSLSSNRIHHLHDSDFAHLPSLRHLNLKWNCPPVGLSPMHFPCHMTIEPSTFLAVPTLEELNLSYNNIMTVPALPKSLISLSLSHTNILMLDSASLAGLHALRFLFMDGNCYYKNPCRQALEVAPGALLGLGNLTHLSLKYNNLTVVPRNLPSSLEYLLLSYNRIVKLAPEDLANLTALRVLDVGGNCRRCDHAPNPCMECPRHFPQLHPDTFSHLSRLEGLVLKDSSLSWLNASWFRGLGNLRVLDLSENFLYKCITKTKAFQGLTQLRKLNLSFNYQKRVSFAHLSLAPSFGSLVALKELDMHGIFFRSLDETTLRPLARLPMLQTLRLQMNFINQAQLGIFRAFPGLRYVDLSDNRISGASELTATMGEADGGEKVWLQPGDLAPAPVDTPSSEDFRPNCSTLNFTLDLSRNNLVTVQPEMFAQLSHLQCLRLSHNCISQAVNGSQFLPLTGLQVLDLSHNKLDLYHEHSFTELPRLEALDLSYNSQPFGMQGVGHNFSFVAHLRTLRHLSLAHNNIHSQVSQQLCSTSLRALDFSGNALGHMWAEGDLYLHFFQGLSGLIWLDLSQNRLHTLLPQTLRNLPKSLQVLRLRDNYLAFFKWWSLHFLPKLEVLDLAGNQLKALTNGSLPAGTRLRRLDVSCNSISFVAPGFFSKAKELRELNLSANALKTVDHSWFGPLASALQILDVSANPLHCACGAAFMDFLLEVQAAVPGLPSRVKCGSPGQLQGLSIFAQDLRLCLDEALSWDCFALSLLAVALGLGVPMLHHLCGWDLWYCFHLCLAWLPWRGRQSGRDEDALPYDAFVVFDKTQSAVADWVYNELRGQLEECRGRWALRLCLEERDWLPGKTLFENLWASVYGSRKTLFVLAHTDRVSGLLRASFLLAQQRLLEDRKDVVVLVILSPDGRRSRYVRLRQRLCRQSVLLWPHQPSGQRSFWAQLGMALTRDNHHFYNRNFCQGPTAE
# Assay: NF-κB-luciferase activation of stably transfected 293-hTLR9-luc cells by CpG ODN 2006 in presence of inhibitory ODN 2088 and/or chloroquine
# Type: cell-based
# Conditions: as Table 1: ODN 2088 0.05 μM
# Experimental: To generate stable clones expressing human TLR9, murine TLR9, or either TLR9 with the NF-κB-luc reporter plasmid, 293 cells were transfected in 10 cm plates (2×10^6 cells/plate) with 16 μg of DNA and selected with 0.7 mg/mL G418 (PAA Laboratories GmbH, Cölbe, Germany). The clones were also screened for IL-8 production or NF-κB-luciferase activity after stimulation with ODN. Four different types of clones were generated.
# NF-κB activation was measured by determining luciferase activity of cells 16 h later. Results are given as fold induction above medium background.
Compound,Fold increase of EC50 compared to ODN 2006 + TE (chloroquine 0.039 μg/mL) [fold],Fold increase of EC50 compared to ODN 2006 + TE (chloroquine 0.078 μg/mL) [fold],Fold increase of EC50 compared to ODN 2006 + TE (chloroquine 0.3125 μg/mL) [fold]
"CCN(CC)CCCC(C)Nc1ccnc2cc(Cl)ccc12 (stereo not drawn) [Chloroquine, chloroquine]",2.3,2.6,3.6
"ODN 2088: inhibitory ODN, TCCTGGCGGGGAAGT, SEQ ID NO:7 (chemistry not given here)",14.7,4.2,8.0

# — US20040009949A1, “Method for treating autoimmune or inflammatory diseases with combinations of inhibitory oligonucleotides and small molecule antagonists of immunostimulatory CpG nucleic acids” (Coley Pharmaceutical Group, Inc., priority 2002, published 2004)
